Source: ChEMBL document CHEMBL4196200 (J Med Chem, 2018)
The source made the active and inactive calls. The rule behind the calls is not given here.

Experiments:
Vasopressin V1a receptor [1] = target: T1, Vasopressin V1a receptor (Homo sapiens, UniProt P37288); experiment: Displacement of DY647 from SNAP-tagged V1A receptor (unknown origin) expressed in HEK293 cells by TR-FRET assay; assay type: cell-based
Vasopressin V1a receptor [2] = target: T1, Vasopressin V1a receptor; experiment: Antagonist activity at human V1A receptor expressed in HEK cells assessed as inhibition of AVP-induced intracellular calcium flux incubated for 45 mins by Indo1-AM dye based fluorescence assay relative to AVP; assay type: functional, cell-based
Oxytocin receptor [3] = target: T2, Oxytocin receptor (Homo sapiens, UniProt P30559); experiment: Displacement of DY647 from SNAP-tagged OTR receptor (unknown origin) expressed in HEK293 cells by TR-FRET assay; assay type: cell-based
T2 sequence (P30559 whole entry): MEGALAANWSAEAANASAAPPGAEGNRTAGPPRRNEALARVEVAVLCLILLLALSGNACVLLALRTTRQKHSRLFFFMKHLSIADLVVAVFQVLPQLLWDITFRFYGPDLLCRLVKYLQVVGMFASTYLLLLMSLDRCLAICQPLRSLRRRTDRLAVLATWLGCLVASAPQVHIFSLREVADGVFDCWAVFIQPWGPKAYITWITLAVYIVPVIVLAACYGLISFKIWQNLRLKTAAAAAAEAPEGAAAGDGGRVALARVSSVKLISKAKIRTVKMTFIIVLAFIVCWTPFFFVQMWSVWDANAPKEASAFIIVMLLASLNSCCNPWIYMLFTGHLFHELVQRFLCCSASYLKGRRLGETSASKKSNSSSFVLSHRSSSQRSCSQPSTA

Oxytocin receptor [4] = target: T2, Oxytocin receptor; experiment: Agonist activity at human OTR expressed in HEK cells assessed as increase in intracellular calcium flux incubated for 45 mins by Indo1-AM dye based fluorescence assay; assay type: functional, cell-based
[5] = target: T3, Oxytocin receptor (Homo sapiens) (UniProt P30559); experiment: Agonist activity at human OTR expressed in HEK cells assessed as increase in intracellular calcium flux incubated for 45 mins by Indo1-AM dye based fluorescence assay relative to OT; assay type: functional, cell-based
T3 sequence (whole entry): T2 sequence (P30559 whole entry)

[6] = target: T3, Oxytocin receptor (Homo sapiens); experiment: Antagonist activity at human OTR expressed in HEK cells assessed as inhibition of OT-induced intracellular calcium flux at 1 uM incubated for 45 mins by Indo1-AM dye based fluorescence assay relative to OT; assay type: functional, cell-based
Mus musculus [7] = experiment: Effect on social interaction in Oprm1+/+ mouse model of autism spectrum disorders assessed as number of nose contacts at 10 mg/kg, ip pre-treated before open-field test for 10 mins; assay type: ADME, organism-based; conditions: in vivo
Mus musculus [8] = experiment: Improvement in social interaction in Oprm1-/- mouse model of autism spectrum disorders assessed as restoration of time spent in nose contacts at 20 mg/kg, ip pre-treated before open-field test for 10 mins; assay type: functional, organism-based
Mus musculus [9] = experiment: Improvement in social interaction in Oprm1-/- mouse model of autism spectrum disorders assessed as restoration of number of following episodes at 20 mg/kg, ip pre-treated before open-field test for 10 mins; assay type: functional, organism-based
Mus musculus [10] = experiment: Effect on social interaction in Oprm1+/+ mouse model of autism spectrum disorders assessed as grooming episodes occurring after social contact at 10 mg/kg, ip pre-treated before open-field test for 10 mins; assay type: ADME, organism-based; conditions: in vivo
Mus musculus [11] = experiment: Effect on social interaction in Oprm1+/+ mouse model of autism spectrum disorders assessed as number of following episodes at 10 mg/kg, ip pre-treated before open-field test for 10 mins; assay type: ADME, organism-based; conditions: in vivo
[12] = AUC in brain of CD1 mouse at 10 mg/kg, ip measured over 15 mins to 240 mins by UHPLC-MS/MS method; assay type: ADME, organism-based; set-up: dose 10 mg/kg, time upper 4 hr, time lower 0.25 hr, route intraperitoneal; conditions: in vivo
Oxytocin receptor [13] = target: T2, Oxytocin receptor; experiment: Agonist activity at human OTR receptor expressed in HEK293FT cells assessed as stimulation of calcium release by Aequorin based assay; assay type: functional, cell-based
[14] = target: T4, Oxytocin receptor (Mus musculus) (UniProt P97926); experiment: Agonist activity at mouse OTR receptor expressed in HEK293FT cells assessed as stimulation of calcium release by Aequorin based assay relative to OT; assay type: functional, cell-based
T4 sequence (whole entry): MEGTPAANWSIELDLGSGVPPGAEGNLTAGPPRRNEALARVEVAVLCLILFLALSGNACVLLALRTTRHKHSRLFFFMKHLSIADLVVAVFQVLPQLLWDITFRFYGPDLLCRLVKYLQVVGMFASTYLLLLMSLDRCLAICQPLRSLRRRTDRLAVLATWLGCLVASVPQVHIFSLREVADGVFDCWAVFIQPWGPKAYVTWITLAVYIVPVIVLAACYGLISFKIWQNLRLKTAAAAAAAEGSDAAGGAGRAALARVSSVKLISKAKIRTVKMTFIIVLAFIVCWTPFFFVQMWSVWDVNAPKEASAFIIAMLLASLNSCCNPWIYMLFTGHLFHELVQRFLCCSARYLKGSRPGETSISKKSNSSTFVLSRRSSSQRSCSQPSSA

Vasopressin V2 receptor [15] = target: T5, Vasopressin V2 receptor (Homo sapiens, UniProt P30518); experiment: Agonist activity at human V2 receptor expressed in HEK293FT cells assessed as stimulation of calcium release by Aequorin based assay; assay type: functional, cell-based
T5 sequence (P30518 whole entry): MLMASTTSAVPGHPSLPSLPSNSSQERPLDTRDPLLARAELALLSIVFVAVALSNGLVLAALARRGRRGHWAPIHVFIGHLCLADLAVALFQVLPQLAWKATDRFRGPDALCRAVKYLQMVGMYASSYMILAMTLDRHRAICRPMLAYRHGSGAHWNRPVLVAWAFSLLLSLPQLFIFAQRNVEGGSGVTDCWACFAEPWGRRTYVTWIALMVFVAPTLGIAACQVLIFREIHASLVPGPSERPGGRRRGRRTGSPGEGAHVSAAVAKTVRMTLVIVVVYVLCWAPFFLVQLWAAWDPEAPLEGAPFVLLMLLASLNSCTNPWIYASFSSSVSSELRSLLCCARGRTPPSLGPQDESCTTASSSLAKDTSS

Vasopressin V1a receptor [16] = target: T1, Vasopressin V1a receptor; experiment: Antagonist activity at human V1a receptor expressed in HEK293FT cells assessed as inhibition of AVP-induced calcium release by Aequorin based assay; assay type: functional, cell-based
Vasopressin V2 receptor [17] = target: T5, Vasopressin V2 receptor; experiment: Agonist activity at human V2 receptor expressed in HEK293FT cells incubated for 30 mins by beta-arrestin recruitment assay; assay type: functional, cell-based
Vasopressin V2 receptor [18] = target: T5, Vasopressin V2 receptor; experiment: Agonist activity at human V2 receptor expressed in HEK293FT cells incubated for 30 mins by beta-arrestin recruitment assay relative to AVP; assay type: functional, cell-based
Vasopressin V1a receptor [19] = target: T1, Vasopressin V1a receptor; experiment: Antagonist activity at human V1a receptor expressed in HEK293FT cells assessed as inhibition of AVP-induced response incubated for 30 mins by beta-arrestin recruitment assay; assay type: functional, cell-based
Vasopressin V1b receptor [20] = target: T6, Vasopressin V1b receptor (Homo sapiens, UniProt P47901); experiment: Antagonist activity at human V1b receptor expressed in HEK293FT cells assessed as inhibition of AVP-induced response incubated for 30 mins by beta-arrestin recruitment assay; assay type: functional, cell-based
T6 sequence (P47901 whole entry): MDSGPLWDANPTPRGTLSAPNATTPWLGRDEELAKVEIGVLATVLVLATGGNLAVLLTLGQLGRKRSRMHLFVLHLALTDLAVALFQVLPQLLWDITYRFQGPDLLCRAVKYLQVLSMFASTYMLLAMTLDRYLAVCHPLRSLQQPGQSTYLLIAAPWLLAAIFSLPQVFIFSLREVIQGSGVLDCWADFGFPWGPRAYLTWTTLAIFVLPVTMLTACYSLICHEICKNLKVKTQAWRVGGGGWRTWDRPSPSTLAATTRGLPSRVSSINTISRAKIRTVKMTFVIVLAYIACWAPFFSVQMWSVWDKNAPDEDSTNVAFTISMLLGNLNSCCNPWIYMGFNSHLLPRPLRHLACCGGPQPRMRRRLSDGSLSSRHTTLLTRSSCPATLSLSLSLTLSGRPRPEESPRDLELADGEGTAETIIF

Vasopressin V1a receptor [21] = target: T1, Vasopressin V1a receptor
Description: Agonist activity at human V1a receptor expressed in HEK293FT cells assessed as stimulation of calcium release by Aequorin based assay

Vasopressin V1b receptor [22] = target: T6, Vasopressin V1b receptor
Description: Agonist activity at human V1b receptor expressed in HEK293FT cells assessed as stimulation of calcium release by Aequorin based assay

Vasopressin V1a receptor [23] = target: T1, Vasopressin V1a receptor; remark: listed apart in the source
Description: Agonist activity at human V1a receptor expressed in HEK293FT cells incubated for 30 mins by beta-arrestin recruitment assay

T1 sequence (P37288 whole entry): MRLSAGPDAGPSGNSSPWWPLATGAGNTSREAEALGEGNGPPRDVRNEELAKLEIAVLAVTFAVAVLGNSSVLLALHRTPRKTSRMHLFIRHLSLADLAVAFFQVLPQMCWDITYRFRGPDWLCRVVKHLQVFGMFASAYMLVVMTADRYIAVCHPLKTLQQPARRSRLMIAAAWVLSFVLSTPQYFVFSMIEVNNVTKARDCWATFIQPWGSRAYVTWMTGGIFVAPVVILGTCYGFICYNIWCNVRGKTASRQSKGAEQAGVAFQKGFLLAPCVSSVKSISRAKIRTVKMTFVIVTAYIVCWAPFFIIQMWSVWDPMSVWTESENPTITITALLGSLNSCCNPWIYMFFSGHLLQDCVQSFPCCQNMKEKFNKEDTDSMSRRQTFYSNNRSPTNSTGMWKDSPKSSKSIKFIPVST

Ki (Vasopressin V1a receptor [1]): 1250 nM
IC50 (Vasopressin V1a receptor [2]): 100 nM
Ki (Oxytocin receptor [3]): 226 nM
EC50 (Oxytocin receptor [4]): 55 nM
Emax [5]: 52%
inhibition [6]: 5 to 10%
AUC [12]: 399 ng·min/g
EC50 (Oxytocin receptor [13]): 25 nM
Emax [14]: 96%
EC50 (Vasopressin V2 receptor [15]): 41 nM
IC50 (Vasopressin V1a receptor [16]): 5900 nM
EC50 (Vasopressin V2 receptor [17]): 660 nM
Emax (Vasopressin V2 receptor [18]): 97%
IC50 (Vasopressin V1a receptor [19]): 2200 nM
IC50 (Vasopressin V1b receptor [20]): Not Active
EC50 (Vasopressin V1a receptor [21]): Not Active
EC50 (Vasopressin V1b receptor [22]): Not Active
IC50 (Vasopressin V1a receptor [23]): Not Active
SMILES: Cc1cc(C(=O)N2Cc3cnn(C)c3Nc3ccccc32)ccc1CNC(=O)N1CCC[C@H]1C(=S)N(C)C
Activity (Mus musculus [7]): Non-Toxic
Activity (Mus musculus [8]): inactive
Activity (Mus musculus [9]): inactive
Activity (Mus musculus [10]): Toxic
Activity (Mus musculus [11]): Toxic
